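Exposure lasted 48 hours, with cells grown in 96-well plates and compounds tested at five concentrations. TGI is the concentration that stops growth completely.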
Tests used:
Assay in all cases: NCI-60 cell line screen, 48 h
SK-MEL-28 melanoma = tested on: SK-MEL-28 melanoma
SK-OV-3 ovarian = tested on: SK-OV-3 ovarian
BT-549 breast = tested on: BT-549 breast
KM12 colon = tested on: KM12 colon
CCRF-CEM leukemia = tested on: CCRF-CEM leukemia
LOX IMVI melanoma = tested on: LOX IMVI melanoma
U251 CNS = tested on: U251 CNS
MDA-MB-435 = tested on: MDA-MB-435
DU-145 prostate = tested on: DU-145 prostate
HOP-62 NSCLC = tested on: HOP-62 NSCLC

Q: With O=C1CCCC2=C1CC1=C(CCCC1=O)N2c1ccccc1 as the compound, how does the TGI (SK-MEL-28 melanoma) read?
A: > 100 µM

Q: And the TGI (SK-OV-3 ovarian)?
A: > 100 µM

Q: What about the TGI (BT-549 breast) of the same compound?
A: > 100 µM

Q: What about the TGI (KM12 colon) of the same compound?
A: > 100 µM

Q: What about the TGI (CCRF-CEM leukemia) of the same compound?
A: > 100 µM

Q: What about the TGI (LOX IMVI melanoma) of the same compound?
A: > 100 µM

Q: And the TGI (U251 CNS)?
A: > 100 µM

Q: With O=[N+]([O-])c1c2nc3n(c2cc2c1nc1n2CCC1)CCC3 as the compound, how does the TGI (SK-MEL-28 melanoma) read?
A: > 100 µM

Q: And the TGI (SK-OV-3 ovarian)?
A: > 100 µM

Q: What about the TGI (MDA-MB-435) of the same compound?
A: > 100 µM

Q: And the TGI (DU-145 prostate)?
A: > 100 µM

Q: And the TGI (HOP-62 NSCLC)?
A: > 100 µM

Q: And the TGI (KM12 colon)?
A: > 100 µM

Q: And the TGI (CCRF-CEM leukemia)?
A: > 100 µM

Q: What about the TGI (LOX IMVI melanoma) of the same compound?
A: > 100 µM

Q: What about the TGI (U251 CNS) of the same compound?
A: > 100 µM

Q: COc1ccc(/C=N/NC(=O)c2cnc3[nH]c(=O)n(C)c(=O)c3c2)cc1 was tested. Which TGI (SK-MEL-28 melanoma) did it give?
A: > 100 µM

Q: And the TGI (SK-OV-3 ovarian)?
A: > 100 µM

Q: What about the TGI (MDA-MB-435) of the same compound?
A: > 100 µM

Q: What about the TGI (BT-549 breast) of the same compound?
A: > 100 µM

Q: What about the TGI (DU-145 prostate) of the same compound?
A: > 100 µM

Q: What about the TGI (HOP-62 NSCLC) of the same compound?
A: > 100 µM

Q: What about the TGI (KM12 colon) of the same compound?
A: > 100 µM

Q: What about the TGI (CCRF-CEM leukemia) of the same compound?
A: > 100 µM

Q: And the TGI (U251 CNS)?
A: > 100 µM

Q: Which TGI (SK-MEL-28 melanoma) does the source give for CC(C)C(=O)/C=C/c1ccc(Cl)c(Cl)c1 here?
A: 35.3 µM

Q: What about the TGI (SK-OV-3 ovarian) of the same compound?
A: 70.3 µM

Q: And the TGI (KM12 colon)?
A: 29 µM

Q: What about the TGI (CCRF-CEM leukemia) of the same compound?
A: 81.7 µM

Q: What about the TGI (U251 CNS) of the same compound?
A: 30.7 µM

Q: What does the source list for C[C@]1(O)O[C@@H]2OCC[C@@H]2C2=C1C(=O)c1ccccc1C2=O?
A: TGI (SK-MEL-28 melanoma): 82.5 µM; TGI (SK-OV-3 ovarian): 45.6 µM; TGI (MDA-MB-435): 19.5 µM; TGI (DU-145 prostate): 30.4 µM; TGI (HOP-62 NSCLC): 26.7 µM; TGI (KM12 colon): 29.8 µM; TGI (CCRF-CEM leukemia): 51.2 µM; TGI (LOX IMVI melanoma): 25.2 µM; TGI (U251 CNS): 29.8 µM

Q: What does the source list for CC(C)(C)c1ccc(C(C)(C)C)c(N2C(=O)C3ON=C(c4ccc([N+](=O)[O-])cc4)C3C2=O)c1 (centres undefined)?
A: TGI (SK-MEL-28 melanoma): > 25 µM; TGI (SK-OV-3 ovarian): > 25 µM; TGI (MDA-MB-435): > 25 µM; TGI (BT-549 breast): > 25 µM; TGI (DU-145 prostate): > 25 µM; TGI (HOP-62 NSCLC): > 25 µM; TGI (KM12 colon): > 25 µM; TGI (CCRF-CEM leukemia): > 25 µM; TGI (LOX IMVI melanoma): > 25 µM

Q: CCCCCCC(C)OC(=O)/C=C(\CC(=O)OC(C)CCCCCC)C(=O)OC(C)CCCCCC (centres undefined) was tested. Which TGI (SK-MEL-28 melanoma) did it give?
A: > 100 µM

Q: What about the TGI (SK-OV-3 ovarian) of the same compound?
A: > 100 µM

Q: What about the TGI (HOP-62 NSCLC) of the same compound?
A: > 100 µM

Q: What about the TGI (LOX IMVI melanoma) of the same compound?
A: > 100 µM

Q: What about the TGI (U251 CNS) of the same compound?
A: > 100 µM

Q: NC1CC(=O)c2sccc21 (centres undefined) was tested. Which TGI (SK-MEL-28 melanoma) did it give?
A: > 100 µM

Q: And the TGI (SK-OV-3 ovarian)?
A: > 100 µM

Q: And the TGI (MDA-MB-435)?
A: > 100 µM

Q: What about the TGI (BT-549 breast) of the same compound?
A: > 100 µM

Q: What about the TGI (DU-145 prostate) of the same compound?
A: > 100 µM

Q: What about the TGI (HOP-62 NSCLC) of the same compound?
A: > 100 µM

Q: What about the TGI (KM12 colon) of the same compound?
A: > 100 µM

Q: What about the TGI (CCRF-CEM leukemia) of the same compound?
A: > 100 µM

Q: What about the TGI (U251 CNS) of the same compound?
A: > 100 µM

Q: c1ccc(C2=NCCc3cc4c(cc32)OCO4)cc1 was tested. Which TGI (SK-MEL-28 melanoma) did it give?
A: > 100 µM

Q: What about the TGI (SK-OV-3 ovarian) of the same compound?
A: > 100 µM

Q: And the TGI (MDA-MB-435)?
A: > 100 µM

Q: What about the TGI (DU-145 prostate) of the same compound?
A: > 100 µM

Q: What about the TGI (HOP-62 NSCLC) of the same compound?
A: > 100 µM

Q: What about the TGI (KM12 colon) of the same compound?
A: > 100 µM

Q: What about the TGI (LOX IMVI melanoma) of the same compound?
A: > 100 µM

Q: What about the TGI (U251 CNS) of the same compound?
A: > 100 µM

Q: For O=C1c2ccccc2C(=O)c2c(O)ccc(O)c21, which TGI (SK-MEL-28 melanoma) is on record?
A: > 100 µM

Q: And the TGI (SK-OV-3 ovarian)?
A: > 100 µM

Q: And the TGI (HOP-62 NSCLC)?
A: > 100 µM

Q: What about the TGI (KM12 colon) of the same compound?
A: > 100 µM

Q: What about the TGI (CCRF-CEM leukemia) of the same compound?
A: > 100 µM

Q: What about the TGI (LOX IMVI melanoma) of the same compound?
A: > 100 µM

Q: And the TGI (U251 CNS)?
A: > 100 µM

Q: For CC(=O)NC(Cc1ccc(OP(=O)(OCc2ccc([N+](=O)[O-])o2)N(C)CCCCCl)cc1)C(=O)NC(C)c1ccc(OCC2CCCCC2)c(C(N)=O)c1 (centres undefined), which TGI (SK-MEL-28 melanoma) is on record?
A: 4.08 µM

Q: What about the TGI (SK-OV-3 ovarian) of the same compound?
A: 37.3 µM

Q: And the TGI (MDA-MB-435)?
A: 4.81 µM

Q: And the TGI (DU-145 prostate)?
A: 15.2 µM

Q: What about the TGI (HOP-62 NSCLC) of the same compound?
A: 23.7 µM

Q: And the TGI (KM12 colon)?
A: 8.71 µM

Q: What about the TGI (CCRF-CEM leukemia) of the same compound?
A: 10.1 µM

Q: And the TGI (LOX IMVI melanoma)?
A: 3.77 µM

Q: What about the TGI (U251 CNS) of the same compound?
A: 6.49 µM

Q: With N#Cc1nc(CCC(c2nc(C#N)c(N)o2)N2C(=O)c3ccccc3C2=O)oc1N (centres undefined) as the compound, how does the TGI (SK-MEL-28 melanoma) read?
A: > 100 µM

Q: And the TGI (SK-OV-3 ovarian)?
A: > 100 µM

Q: What about the TGI (MDA-MB-435) of the same compound?
A: > 100 µM

Q: What about the TGI (DU-145 prostate) of the same compound?
A: > 100 µM

Q: And the TGI (HOP-62 NSCLC)?
A: > 100 µM

Q: And the TGI (KM12 colon)?
A: > 100 µM

Q: What about the TGI (LOX IMVI melanoma) of the same compound?
A: > 100 µM

Q: And the TGI (U251 CNS)?
A: > 100 µM
